Data on two compounds can be found in patent publication US8293753B2, “Substituted 2-carboxamide cycloamino ureas” (Novartis AG, priority 2009, dated 2012).

Molecules are shown by their SMILES.

Common to all, as to format: biochemical
One assay has as its target T1, PI3Kα (Homo sapiens, UniProt P42336).
T1 construct: His (C); made in house; host or cells: baculovirus / Tn5 insect cells
The experiment in a line: PI3K KinaseGlo assay, PI3Kalpha. The note with it: 1 μM ATP, 10 nM enzyme, 30 mins. For orientation: In Kinase-Glo more light means more ATP remaining.

Another assay has as its target T2, PI3Kβ (Homo sapiens, UniProt P42338).
T2 construct: His (C); made in house; host or cells: baculovirus / Tn5 insect cells
The experiment in a line: PI3K KinaseGlo assay, PI3Kbeta. To be noted: for IC50: KinaseGlo, 1 μM ATP, 25 nM enzyme, 30 mins; for PI3Kbeta (selectivity): selectivity factor: PI3Kbeta IC50 divided by PI3Kalpha IC50.

The target of a further assay is T3, PI3Kγ (Homo sapiens, UniProt P48736, Q459R).
T3 construct: His (C); made in house; host or cells: Tn5 insect cells; construct obtained from Roger Williams lab (MRC LMB)
The experiment in a line: PI3K KinaseGlo assay, PI3Kgamma. To be noted: for IC50: KinaseGlo, 1 μM ATP, 150 nM enzyme, 90 mins; for PI3Kgamma (selectivity): selectivity factor: PI3Kgamma IC50 divided by PI3Kalpha IC50. The method, then: PI3K KinaseGlo assay: […] of compound dilutions were dispensed onto black 384-well low volume Non Binding Styrene (NBS) plates (Costar Cat. No. NBS#3676). L-a-phosphatidylinositol (PI), provided as 10 mg/ml solution in methanol, was transferred into a glass tube and dried under nitrogen beam. It was then resuspended in 3% OctylGlucoside (OG) by vortexing and stored at 4° C. The KinaseGlo Luminescent Kinase Assay (Promega, Madison/WI, USA) is a homogeneous HTS method of measuring kinase activity by quantifying the amount of ATP remaining in solution following a kinase reaction.
5 μL of a mix of PI/OG with the PI3K subtype were added (Table 1). Kinase reactions were started by addition of 5 μl of ATP-mix containing in a final volume 10 μL 10 mM TRIS-HCl pH 7.5, 3 mM MgCl2, 50 mM NaCl, 0.05% CHAPS, 1 mM DTT and 1 μM ATP, and occurred at room temperature. Reactions were stopped with 10 μl of KinaseGlo and plates were read 10 mins later in a Synergy2 reader using an integration time of 0.1 seconds per well. […] The standard was used as a reference compound and included in all assay plates in the form of 16 dilution points in duplicate.
The PI3Kα, PI3Kβ and PI3Kδ constructs are fusion of p85α iSH2 domain and the respective p110 isoforms. The p85α fragment and p110 isoform genes were generated by PCR from first strand cDNA generated by RT-PCR from commercial RNA from placenta, testis and brain as described below. The PI3Kγ construct was obtained from Roger Williams lab, MRC Laboratory of Molecular Biology, Cambridge, UK (November, 2003) and is described (Pacold, Michael E.; Suire, Sabine; Perisic, Olga; Lara-Gonzalez, Samuel; Davis, Colin T.; Walker, Edward H.; Hawkins, Phillip T.; Stephens, Len; Eccleston, John F.; Williams, Roger L. Crystal structure and functional analysis of Ras binding to its effector phosphoinositide 3-kinase gamma. Cell (2000), 103(6), 931-943).
Construct obtained from Roger Williams lab, MRC Laboratory of Molecular Biology, Cambridge, UK (November, 2003). Description of the construct in (Pacold, Michael E.; Suire, Sabine; Perisic, Olga; Lara-Gonzalez, Samuel; Davis, Colin T.; Walker, Edward H.; Hawkins, Phillip T.; Stephens, Len; Eccleston, John F.; Williams, Roger L. Crystal structure and functional analysis of Ras binding to its effector phosphoinositide 3-kinase gamma. Cell (2000), 103(6), 931-943). Constructs lacking the N-terminal 144 aa.

A further assay deals with T4, PI3Kδ (Homo sapiens, UniProt O00329).
T4 construct: p85iSH2(461-568)-GGGGGG-p110δ(2-1044)-His; His (C); made in house; host or cells: baculovirus / Tn5 insect cells
The assay is described as follows: PI3K KinaseGlo assay, PI3Kdelta. To be noted: for IC50: KinaseGlo, 1 μM ATP, 10 nM enzyme, 30 mins; for PI3Kdelta (selectivity): selectivity factor: PI3Kdelta IC50 divided by PI3Kalpha IC50.

T2 sequence (P42338 with tags, fused parts or gaps): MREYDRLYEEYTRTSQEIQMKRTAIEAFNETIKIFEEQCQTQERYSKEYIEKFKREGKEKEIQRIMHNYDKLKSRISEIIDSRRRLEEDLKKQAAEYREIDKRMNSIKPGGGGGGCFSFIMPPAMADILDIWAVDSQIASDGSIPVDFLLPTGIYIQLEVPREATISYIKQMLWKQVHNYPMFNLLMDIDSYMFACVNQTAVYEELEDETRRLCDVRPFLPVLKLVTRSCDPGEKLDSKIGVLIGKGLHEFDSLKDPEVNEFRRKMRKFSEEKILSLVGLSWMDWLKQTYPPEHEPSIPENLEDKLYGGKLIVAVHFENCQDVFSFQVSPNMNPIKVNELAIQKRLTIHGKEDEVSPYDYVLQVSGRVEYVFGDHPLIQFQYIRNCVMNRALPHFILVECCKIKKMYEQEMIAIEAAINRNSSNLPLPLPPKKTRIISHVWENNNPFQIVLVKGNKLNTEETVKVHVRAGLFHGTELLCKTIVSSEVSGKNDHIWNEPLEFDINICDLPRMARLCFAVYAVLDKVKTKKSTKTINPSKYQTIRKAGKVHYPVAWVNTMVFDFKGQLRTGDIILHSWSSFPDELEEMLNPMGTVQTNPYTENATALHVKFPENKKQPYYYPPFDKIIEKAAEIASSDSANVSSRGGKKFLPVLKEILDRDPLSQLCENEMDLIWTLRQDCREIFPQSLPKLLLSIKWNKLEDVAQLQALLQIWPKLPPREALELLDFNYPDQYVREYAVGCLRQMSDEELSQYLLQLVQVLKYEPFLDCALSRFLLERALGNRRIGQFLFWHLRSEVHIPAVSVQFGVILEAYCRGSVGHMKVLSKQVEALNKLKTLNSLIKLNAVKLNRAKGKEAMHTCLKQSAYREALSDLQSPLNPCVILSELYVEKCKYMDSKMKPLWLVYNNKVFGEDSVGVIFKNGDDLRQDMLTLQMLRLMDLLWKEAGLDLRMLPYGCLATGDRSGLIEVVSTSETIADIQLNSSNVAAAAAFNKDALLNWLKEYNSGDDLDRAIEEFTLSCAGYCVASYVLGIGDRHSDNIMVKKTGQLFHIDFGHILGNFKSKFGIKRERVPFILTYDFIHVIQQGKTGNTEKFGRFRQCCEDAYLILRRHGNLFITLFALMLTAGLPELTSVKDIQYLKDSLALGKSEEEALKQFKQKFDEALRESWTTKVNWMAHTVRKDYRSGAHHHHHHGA
T3 sequence (P48736 with tags, fused parts or gaps Q459R): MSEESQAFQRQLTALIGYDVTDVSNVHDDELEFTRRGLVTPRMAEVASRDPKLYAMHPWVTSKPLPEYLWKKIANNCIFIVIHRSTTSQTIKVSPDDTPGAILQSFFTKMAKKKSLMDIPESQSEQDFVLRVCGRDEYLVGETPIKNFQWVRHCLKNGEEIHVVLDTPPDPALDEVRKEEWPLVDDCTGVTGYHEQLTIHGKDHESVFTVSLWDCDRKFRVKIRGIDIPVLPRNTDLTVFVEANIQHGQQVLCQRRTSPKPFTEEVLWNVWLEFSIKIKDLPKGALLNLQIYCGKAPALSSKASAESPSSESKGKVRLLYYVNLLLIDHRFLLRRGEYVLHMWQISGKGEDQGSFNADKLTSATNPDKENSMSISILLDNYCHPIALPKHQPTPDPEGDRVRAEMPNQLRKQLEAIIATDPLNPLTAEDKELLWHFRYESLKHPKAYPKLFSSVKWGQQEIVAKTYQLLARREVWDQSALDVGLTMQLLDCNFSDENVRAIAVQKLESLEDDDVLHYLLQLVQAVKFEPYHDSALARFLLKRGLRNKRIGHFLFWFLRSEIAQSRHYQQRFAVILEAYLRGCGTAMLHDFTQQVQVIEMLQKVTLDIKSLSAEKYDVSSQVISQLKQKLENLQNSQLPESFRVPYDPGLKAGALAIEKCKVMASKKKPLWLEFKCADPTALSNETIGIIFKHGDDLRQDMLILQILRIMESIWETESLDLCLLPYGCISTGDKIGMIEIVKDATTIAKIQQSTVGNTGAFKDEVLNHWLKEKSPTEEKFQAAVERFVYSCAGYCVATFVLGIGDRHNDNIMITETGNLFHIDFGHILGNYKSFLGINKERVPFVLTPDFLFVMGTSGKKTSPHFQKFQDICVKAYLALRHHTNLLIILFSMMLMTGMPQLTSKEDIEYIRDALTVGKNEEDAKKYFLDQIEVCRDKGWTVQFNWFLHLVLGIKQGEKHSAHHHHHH
T4 sequence (O00329 with tags, fused parts or gaps): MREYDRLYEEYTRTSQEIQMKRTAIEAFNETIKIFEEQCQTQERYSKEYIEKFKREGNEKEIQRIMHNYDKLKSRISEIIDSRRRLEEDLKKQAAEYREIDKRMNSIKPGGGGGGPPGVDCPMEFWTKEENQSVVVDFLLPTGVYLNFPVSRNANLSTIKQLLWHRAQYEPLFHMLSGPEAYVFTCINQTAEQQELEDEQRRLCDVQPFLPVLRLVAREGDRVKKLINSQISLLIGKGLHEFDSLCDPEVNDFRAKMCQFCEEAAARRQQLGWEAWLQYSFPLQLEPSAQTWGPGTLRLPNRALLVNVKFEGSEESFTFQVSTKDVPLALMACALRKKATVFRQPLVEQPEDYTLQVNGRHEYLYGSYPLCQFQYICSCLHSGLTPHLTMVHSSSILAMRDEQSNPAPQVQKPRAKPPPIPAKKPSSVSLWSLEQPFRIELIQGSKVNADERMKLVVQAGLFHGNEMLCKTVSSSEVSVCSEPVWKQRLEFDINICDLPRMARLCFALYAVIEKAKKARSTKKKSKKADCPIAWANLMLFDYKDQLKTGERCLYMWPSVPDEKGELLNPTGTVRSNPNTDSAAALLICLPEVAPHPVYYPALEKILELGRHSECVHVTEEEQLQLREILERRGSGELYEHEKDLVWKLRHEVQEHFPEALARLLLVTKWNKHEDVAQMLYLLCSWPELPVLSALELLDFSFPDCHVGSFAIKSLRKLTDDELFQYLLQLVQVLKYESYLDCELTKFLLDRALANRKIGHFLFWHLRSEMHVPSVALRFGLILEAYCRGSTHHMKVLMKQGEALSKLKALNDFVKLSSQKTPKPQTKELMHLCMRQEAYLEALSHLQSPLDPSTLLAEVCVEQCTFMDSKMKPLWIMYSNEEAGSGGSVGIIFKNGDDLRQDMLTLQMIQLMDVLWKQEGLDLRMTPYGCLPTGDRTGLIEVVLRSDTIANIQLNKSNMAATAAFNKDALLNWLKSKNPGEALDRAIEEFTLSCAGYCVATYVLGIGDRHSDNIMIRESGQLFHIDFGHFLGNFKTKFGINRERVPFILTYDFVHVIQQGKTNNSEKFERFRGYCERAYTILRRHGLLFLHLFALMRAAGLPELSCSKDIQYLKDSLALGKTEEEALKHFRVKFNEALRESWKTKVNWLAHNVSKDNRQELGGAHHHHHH
T1 sequence (P42336 with tags, fused parts or gaps): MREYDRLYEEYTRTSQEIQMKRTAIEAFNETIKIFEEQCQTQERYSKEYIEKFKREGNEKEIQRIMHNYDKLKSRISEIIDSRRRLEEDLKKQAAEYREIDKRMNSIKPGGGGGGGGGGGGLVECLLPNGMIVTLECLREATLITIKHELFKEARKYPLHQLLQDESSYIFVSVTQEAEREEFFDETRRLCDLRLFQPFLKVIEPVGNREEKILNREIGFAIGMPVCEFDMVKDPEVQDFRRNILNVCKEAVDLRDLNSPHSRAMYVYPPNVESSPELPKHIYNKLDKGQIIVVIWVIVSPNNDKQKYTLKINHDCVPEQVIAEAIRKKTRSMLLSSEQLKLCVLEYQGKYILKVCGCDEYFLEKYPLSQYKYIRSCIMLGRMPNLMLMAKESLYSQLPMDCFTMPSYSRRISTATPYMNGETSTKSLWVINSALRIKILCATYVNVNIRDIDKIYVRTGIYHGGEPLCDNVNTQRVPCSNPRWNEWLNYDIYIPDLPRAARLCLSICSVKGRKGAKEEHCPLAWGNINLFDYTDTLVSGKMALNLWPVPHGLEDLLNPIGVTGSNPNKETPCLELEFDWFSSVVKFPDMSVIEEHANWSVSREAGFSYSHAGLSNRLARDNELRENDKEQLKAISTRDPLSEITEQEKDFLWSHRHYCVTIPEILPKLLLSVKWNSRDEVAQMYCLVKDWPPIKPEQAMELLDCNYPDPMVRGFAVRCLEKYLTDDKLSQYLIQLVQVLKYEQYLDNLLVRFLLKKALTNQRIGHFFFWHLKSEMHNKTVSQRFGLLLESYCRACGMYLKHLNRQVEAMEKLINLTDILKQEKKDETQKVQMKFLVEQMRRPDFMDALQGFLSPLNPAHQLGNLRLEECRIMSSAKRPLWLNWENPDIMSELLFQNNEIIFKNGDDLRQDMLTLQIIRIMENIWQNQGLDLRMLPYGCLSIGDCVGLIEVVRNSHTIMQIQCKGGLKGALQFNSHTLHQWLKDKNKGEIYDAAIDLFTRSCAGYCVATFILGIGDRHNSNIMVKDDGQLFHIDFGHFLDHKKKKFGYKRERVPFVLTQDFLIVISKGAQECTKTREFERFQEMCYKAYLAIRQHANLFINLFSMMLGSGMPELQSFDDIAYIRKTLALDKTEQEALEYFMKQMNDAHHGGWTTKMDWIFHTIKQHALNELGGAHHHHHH

Take `Cc1nc(NC(=O)N2CC[C@@H](C)[C@H]2C(N)=O)sc1-c1ccnc(C2(C)CC2)c1` [Example 1, (2S,3R)-3-Methyl-pyrrolidine-1,2-dicarboxylic acid 2-amide 1-({4-methyl-5-[2-(1-methyl-cyclopropyl)-pyridin-4-yl]-thiazol-2-yl}-amide)]: it took 7 nM to reach half-maximal inhibition on PI3Kα (IC50). Further, at PI3Kβ, the IC50 (commonly the point on the concentration scale where inhibition reaches its midpoint) was 2600 nM and the “PI3Kbeta (selectivity)” value is reported as “(370)”. In addition, at PI3Kγ, the IC50 came to 175 nM and the “PI3Kgamma (selectivity)” value is given as “(25)”. Moreover, at PI3Kδ, the IC50 was determined as 168 nM and the “PI3Kdelta (selectivity)” value is “(24)”.

Consider `Cc1nc(NC(=O)N2CCC(C)(C)C2C(N)=O)sc1-c1ccnc(C(C)(C)C(F)(F)F)c1` (racemic) [Example 4, (rac)-3,3-Dimethyl-pyrrolidine-1,2-dicarboxylic acid 2-amide 1-({4-methyl-5-[2-(2,2,2-trifluoro-1,1-dimethyl-ethyl)-pyridin-4-yl]-thiazol-2-yl}-amide)], for which the concentration for half-maximal inhibition (IC50) on PI3Kα is 91 nM; at PI3Kβ, 6960 nM; at PI3Kγ, 1680 nM; against PI3Kδ, 437 nM. Further, the “PI3Kbeta (selectivity)” value at PI3Kβ was “(76)”. The “PI3Kgamma (selectivity)” value on PI3Kγ was “(18)”. Moreover, the “PI3Kdelta (selectivity)” value at PI3Kδ was “(4)”.
